In US8697739B2, “Bicyclic acetyl-CoA carboxylase inhibitors and uses thereof” (Novartis AG, priority 2010, dated 2014):
pIC50: −log10 of the molar value.

Target: T1, human acetyl-CoA carboxylase 2 (ACC2) (Homo sapiens, UniProt O00763)
T1 construct: The cDNA encoding amino acids 144 to 2458 of human acetyl-CoA carboxylase 2; made in house; host or cells: Sf9 insect cells (baculovirus, pFastBac1)
Assay: Acetyl-CoA carboxylase enzyme assay (malonyl-CoA formation by LC/MS/MS)
Format: biochemical
Details: recombinant human ACC2 (aa 144-2458); read-out: IC50 ACC2
Summary of the method: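 Malonyl-CoA formation was read by LC/MS/MS MRM against a [13C3]-malonyl-CoA internal standard, after acetic acid quench. The enzyme was baculovirus/Sf9-expressed human ACC2 residues 144–2458, given 15 minutes room-temperature compound preincubation in HEPES pH 7.5 buffer with MgCl2, citrate and DTT. Substrate solution held 50 μM acetyl-CoA, 120 μM ATP and 2 mM KHCO3.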

T1 sequence (O00763 144-2458): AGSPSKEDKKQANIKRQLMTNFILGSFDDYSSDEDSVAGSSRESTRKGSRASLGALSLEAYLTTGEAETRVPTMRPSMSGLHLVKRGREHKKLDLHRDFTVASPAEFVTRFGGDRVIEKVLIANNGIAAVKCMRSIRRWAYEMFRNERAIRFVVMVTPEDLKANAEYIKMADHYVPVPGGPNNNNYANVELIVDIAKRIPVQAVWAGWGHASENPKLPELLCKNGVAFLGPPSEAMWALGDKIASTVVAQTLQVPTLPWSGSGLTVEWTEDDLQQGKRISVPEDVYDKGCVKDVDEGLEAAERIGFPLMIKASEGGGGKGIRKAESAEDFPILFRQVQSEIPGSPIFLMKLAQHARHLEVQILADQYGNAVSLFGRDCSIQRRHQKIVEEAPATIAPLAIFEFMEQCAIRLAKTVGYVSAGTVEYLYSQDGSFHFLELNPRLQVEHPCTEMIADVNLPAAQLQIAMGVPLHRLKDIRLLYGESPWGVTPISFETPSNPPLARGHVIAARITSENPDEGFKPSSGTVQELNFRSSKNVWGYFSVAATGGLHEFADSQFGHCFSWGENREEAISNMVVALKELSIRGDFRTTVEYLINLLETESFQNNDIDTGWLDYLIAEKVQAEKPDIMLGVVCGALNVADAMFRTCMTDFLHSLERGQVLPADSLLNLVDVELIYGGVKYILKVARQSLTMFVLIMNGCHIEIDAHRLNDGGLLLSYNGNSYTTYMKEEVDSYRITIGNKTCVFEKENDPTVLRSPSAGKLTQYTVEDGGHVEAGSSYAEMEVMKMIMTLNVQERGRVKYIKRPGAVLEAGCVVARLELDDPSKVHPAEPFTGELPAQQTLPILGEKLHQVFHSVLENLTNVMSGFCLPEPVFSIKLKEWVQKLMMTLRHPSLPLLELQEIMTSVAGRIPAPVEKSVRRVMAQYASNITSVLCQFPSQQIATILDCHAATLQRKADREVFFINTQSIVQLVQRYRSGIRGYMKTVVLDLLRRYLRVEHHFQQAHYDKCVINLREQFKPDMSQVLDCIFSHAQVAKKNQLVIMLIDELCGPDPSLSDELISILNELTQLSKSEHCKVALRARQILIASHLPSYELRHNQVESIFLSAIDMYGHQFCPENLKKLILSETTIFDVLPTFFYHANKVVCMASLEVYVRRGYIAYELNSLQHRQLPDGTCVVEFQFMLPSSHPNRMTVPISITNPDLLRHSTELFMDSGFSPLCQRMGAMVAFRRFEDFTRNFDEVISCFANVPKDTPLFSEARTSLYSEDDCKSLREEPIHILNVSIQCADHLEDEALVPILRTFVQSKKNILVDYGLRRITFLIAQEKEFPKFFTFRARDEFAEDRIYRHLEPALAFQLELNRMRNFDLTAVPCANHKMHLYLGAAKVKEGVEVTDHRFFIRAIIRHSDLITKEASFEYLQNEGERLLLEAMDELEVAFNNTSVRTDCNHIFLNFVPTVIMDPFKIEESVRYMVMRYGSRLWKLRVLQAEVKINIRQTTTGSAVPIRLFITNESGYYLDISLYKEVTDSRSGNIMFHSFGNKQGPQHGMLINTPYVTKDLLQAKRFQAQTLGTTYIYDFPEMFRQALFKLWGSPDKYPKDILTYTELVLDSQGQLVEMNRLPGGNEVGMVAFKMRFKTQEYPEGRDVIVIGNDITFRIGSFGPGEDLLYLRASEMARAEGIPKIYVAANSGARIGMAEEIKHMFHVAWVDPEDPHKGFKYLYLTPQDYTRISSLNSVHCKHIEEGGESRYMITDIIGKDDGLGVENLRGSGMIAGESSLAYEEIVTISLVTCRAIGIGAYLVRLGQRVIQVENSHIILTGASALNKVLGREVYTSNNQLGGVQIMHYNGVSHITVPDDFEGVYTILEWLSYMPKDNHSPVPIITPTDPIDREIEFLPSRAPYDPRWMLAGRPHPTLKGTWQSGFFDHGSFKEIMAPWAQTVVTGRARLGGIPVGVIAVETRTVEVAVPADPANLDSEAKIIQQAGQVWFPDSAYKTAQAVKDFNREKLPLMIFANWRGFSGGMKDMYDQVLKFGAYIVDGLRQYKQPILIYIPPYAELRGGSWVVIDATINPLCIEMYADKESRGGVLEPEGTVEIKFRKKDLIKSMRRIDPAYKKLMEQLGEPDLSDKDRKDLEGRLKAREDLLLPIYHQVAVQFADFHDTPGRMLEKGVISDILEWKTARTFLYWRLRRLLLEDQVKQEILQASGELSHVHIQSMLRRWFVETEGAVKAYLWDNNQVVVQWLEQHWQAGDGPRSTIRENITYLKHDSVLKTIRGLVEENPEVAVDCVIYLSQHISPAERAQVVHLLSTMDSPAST

SMILES | pIC50
C[C@@H](NC(=O)[C@H]1CC[C@H](NS(=O)(=O)c2cnc3c(c2)OCCN3C)CC1)c1ccc(F)cc1 [Example 127, (1r-4R)-N-((R)-1-(4-fluorophenyl)ethyl)-4-(4-methyl-3,4-dihydro-2H-pyrido[3,2-b][1,4]oxazine-7-sulfonamido)cyclohexanecarboxamide] | 6.41
C[C@@H]1CCCN1C(=O)[C@H]1CC[C@H](NS(=O)(=O)c2cnc3c(c2)N(C)CCN3C)CC1 [Example 129, 1,4-dimethyl-N-((1R,4r)-4-((R)-2-methylpyrrolidine-1-carbonyl)cyclohexyl)-1,2,3,4-tetrahydropyrido[3,2-b]pyrazine-7-sulfonamide] | 4.98
C[C@@H](NC(=O)[C@H]1CC[C@H](NS(=O)(=O)c2cnc3c(c2)N(C)CCO3)CC1)c1ccc(F)cc1 [Example 131, (1r,4R)-N-((R)-1-(4-fluorophenyl)ethyl)-4-(1-methyl-2,3-dihydro-1H-pyrido[2,3-b][1,4]oxazine-7-sulfonamido)cyclohexanecarboxamide] | 6.76
C[C@@H](NC(=O)[C@H]1CC[C@H](NS(=O)(=O)c2cnc3c(c2)N(CC(F)(F)F)CCN3C)CC1)c1ccc(F)cc1 [Example 135, (1r,4R)-N-((R)-1-(4-fluorophenyl)ethyl)-4-(4-methyl-1-(2,2,2-triffuoroethyl)-1,2,3,4-tetrahydropyrido[3,2-b]pyrazine-7-sulfonamido)cyclohexanecarboxamide] | 6.80
Cc1ccccc1-c1cc2ccc(S(=O)(=O)N[C@H]3CC[C@H](C(=O)N4CCOCC4)CC3)cc2[nH]1 [Example 136, N-((1R,4r)-4-(morpholine-4-carbonyl)cyclohexyl)-2-o-tolyl-1H-indole-6-sulfonamide] | 6.73
Cc1ccccc1-c1cc2ccc(S(=O)(=O)N[C@H]3CC[C@H](C(=O)N4CCC[C@H]4C)CC3)cc2[nH]1 [Example 137, N-((1R,4r)-4-((R)-2-methylpyrrolidine-1-carbonyl)cyclohexyl)-2-o-tolyl-1H-indole-6-sulfonamide] | 6.79
Cc1ccnc2ncc(S(=O)(=O)N[C@H]3CC[C@H](C(=O)N[C@H](C)c4ccc(F)cc4)CC3)cc12 [Example 140, (1r,4R)-N-((R)-1-(4-fluorophenyl)ethyl)-4-(5-methyl-1,8-naphthyridine-3-sulfonamido)cyclohexanecarboxamide] | 6.01
CC(C)N1CCNc2ncc(S(=O)(=O)N[C@H]3CC[C@H](C(=O)N[C@H](C)c4ccc(F)cc4)CC3)cc21 [Example 141, (1r,4R)-N-((R)-1-(4-fluorophenyl)ethyl)-4-(1-isopropyl-1,2,3,4-tetrahydropyrido[3,2-b]pyrazine-7-sulfonamido)cyclohexanecarboxamide] | 6.24
CC(C)N1CCN(C(C)C)c2ncc(S(=O)(=O)N[C@H]3CC[C@H](C(=O)N[C@H](C)c4ccc(F)cc4)CC3)cc21 [Example 143, (1r,4R)-4-(1,4-diisopropyl-1,2,3,4-tetrahydropyrido[3,2-b]pyrazine-7-sulfonamido)-N-((R)-1-(4-fluorophenyl)ethyl)cyclohexanecarboxamide] | 6.49
C[C@@H](NC(=O)[C@H]1CC[C@H](NS(=O)(=O)c2ccc3c(c2)CCC(C)(C)O3)CC1)c1ccc(F)cc1 [Example 144, (1r,4R)-4-(2,2-dimethylchroman-6-sulfonamido)-N-((R)-1-(4-fluorophenyl)ethyl)cyclohexanecarboxamide] | 6.50
C[C@H]1CCCN1C(=O)[C@H]1CC[C@H](NS(=O)(=O)c2ccc3ccccc3c2)CC1 [Example 146, N-((1S,4r)-4-((S)-2-methylpyrrolidine-1-carbonyl)cyclohexyl)naphthalene-2-sulfonamide] | 6.02
C[C@@H](NC(=O)[C@H]1CC[C@@H](NS(=O)(=O)c2ccc3ccccc3c2)CC1)c1ccc(F)cc1 [Example 147, (1s,4S)-N-((R)-1-(4-fluorophenyl)ethyl)-4-(naphthalene-2-sulfonamido)cyclohexanecarboxamide] | < 4.46
C[C@@H](NC(=O)[C@H]1CC[C@H](NS(=O)(=O)c2ccc3c(c2)NCCN3)CC1)c1ccc(F)cc1 [Example 149, (1r,4R)-N-((R)-1-(4-fluorophenyl)ethyl)-4-(1,2,3,4-tetrahydroquinoxaline-6-sulfonamido)cyclohexanecarboxamide] | 6.54

Compounds with a higher pIC50, results first:

pIC50 | SMILES
6.83 | Cc1c[nH]c2ncc(S(=O)(=O)N[C@H]3CC[C@H](C(=O)N[C@H](C)c4ccc(F)cc4)CC3)cc12 [Example 138, (1r,4R)-N-((R)-1-(4-fluorophenyl)ethyl)-4-(3-methyl-1H-pyrrolo[2,3-b]pyridine-5-sulfonamido)cyclohexanecarboxamide]
6.84 | C[C@@H](NC(=O)[C@H]1CC[C@H](NS(=O)(=O)c2cnc3c(c2)N(C)CCCN3C)CC1)c1ccc(F)cc1 [Example 128, (1r,4R)-4-(1,5-dimethyl-2,3,4,5-tetrahydro-1H-pyrido[2,3-b][1,4]diazepine-8-sulfonamido)-N-((R)-1-(4-fluorophenyl)ethyl)cyclohexanecarboxamide]
6.89 | C[C@@H](NC(=O)[C@H]1CC[C@H](NS(=O)(=O)c2cnc3c(c2)CCCN3C)CC1)c1ccc(F)cc1 [Example 145, (1r,4R)-N-((R)-1-(4-fluorophenyl)ethyl)-4-(8-methyl-5,6,7,8-tetrahydro-1,8-naphthyridine-3-sulfonamido)cyclohexanecarboxamide]
6.98 | C[C@@H](NC(=O)[C@H]1CC[C@H](NS(=O)(=O)c2ccc3c(c2)NCCO3)CC1)c1ccc(F)cc1 [Example 150, (1r,4R)-4-(3,4-dihydro-2H-benzo[b][1,4]oxazine-6-sulfonamido)-N-((R)-1-(4-fluorophenyl)ethyl)cyclohexanecarboxamide]
7.15 | COCCn1c(-c2ccccc2)nc2cc(S(=O)(=O)N[C@H]3CC[C@H](C(=O)N[C@H](C)c4ccc(F)cc4)CC3)ccc21 [Example 126, (1r,4R)-N-((R)-1-(4-fluorophenyl)ethyl)-4-(1-(2-methoxyethyl)-2-phenyl-1H-benzo[d]imidazole-5-sulfonamido)cyclohexanecarboxamide]
7.17 | C[C@@H](NC(=O)[C@H]1CC[C@H](NS(=O)(=O)c2cnc3c(c2)N(C2CC2)CCN3C)CC1)c1ccc(F)cc1 [Example 132, (1r,4R)-4-(1-cyclopropyl-4-methyl-1,2,3,4-tetrahydropyrido[3,2-b]pyrazine-7-surfonamido)-N-((R)-1-(4-fluorophenyl)ethyl)cyclohexanecarboxamide]
7.17 | C[C@@H](NC(=O)[C@H]1CC[C@H](NS(=O)(=O)c2cnc3c(c2)NCCN3C)CC1)c1ccc(F)cc1 [Example 142, (1r,4R)-N-((R)-1-(4-fluorophenyl)ethyl)-4-(4-methyl-1,2,3,4-tetrahydropyrido[3,2-b]pyrazine-7-sulfonamido)cyclohexanecarboxamide]
7.22 | C[C@@H](NC(=O)[C@H]1CC[C@H](NS(=O)(=O)c2ccc3c(c2)CCCN3)CC1)c1ccc(F)cc1 [Example 152, (1r,4R)-N-((R)-1-(4-fluorophenyl)ethyl)-4-(1,2,3,4-tetrahydroquinoline-6-sulfonamido)cyclohexanecarboxamide]
7.23 | C[C@@H](NC(=O)[C@H]1CC[C@H](NS(=O)(=O)c2cnc3c(c2)N(C)CCN3)CC1)c1ccc(F)cc1 [Example 130, (1r,4R)-N-((R)-1-(4-fluorophenyl)ethyl)-4-(1-methyl-1,2,3,4-tetrahydropyrido[3,2-b]pyrazine-7-sulfonamido)cyclohexanecarboxamide]
7.24 | C[C@@H]1CCCN1C(=O)[C@H]1CC[C@H](NS(=O)(=O)c2ccc3[nH]c(-c4ccccc4)nc3c2)CC1 [Example 125, N-((1R,4r)-4-((R)-2-methylpyrrolidine-1-carbonyl)cyclohexyl)-2-phenyl-1H-benzo[d]imidole-5-sulfonamide]
7.33 | C[C@@H](NC(=O)[C@H]1CC[C@H](NS(=O)(=O)c2ccc3c(c2)NCCC3)CC1)c1ccc(F)cc1 [Example 151, (1r,4R)-N-((R)-1-(4-fluorophenyl)ethyl)-4-(1,2,3,4-tetrahydroquinoline-7-sulfonamido)cyclohexanecarboxamide]
7.34 | C[C@@H](NC(=O)[C@H]1CC[C@H](NS(=O)(=O)c2ccc3c(c2)N(C)CCN3C)CC1)c1ccc(F)cc1 [Example 133, (1r,4R)-4-(1,4-dimethyl-1,2,3,4-tetrahydroquinoxaline-6-sulfonamido)-N-((R)-1-(4-fluorophenyl)ethyl)cyclohexanecarboxamide]
7.55 | C[C@@H](NC(=O)[C@H]1CC[C@H](NS(=O)(=O)c2cnc3c(c2)N(C)C2CCCCC2N3C)CC1)c1ccc(F)cc1 (stereo partly drawn) [Example 134, (1r,4R)-4-(5,10-dimethyl-5,5a,6,7,8,9,9a,10-octahydropyrido[3,2-b]quinoxaline-3-sulfonamido)-N((R)-1-(4-fluorophenyl)ethyl)cyclohexanecarboxamide]
7.80 | C[C@@H](NC(=O)[C@H]1CC[C@H](NS(=O)(=O)c2cnc3c(c2)N(C)[C@@H]2CCCC[C@H]2N3C)CC1)c1ccc(F)cc1 [Example 139, (1R,4R)-4-((5aR,9aR)-5,10-dimethyl-5,5a,6,7,8,9,9a,10-octahydropyrido[3,2-b]quinoxaline-3-sulfonamido)-N-((R)-1-(4-fluorophenyl)ethyl)cyclohexanecarboxamide]
8.00 | C[C@@H](NC(=O)[C@H]1CC[C@H](NS(=O)(=O)c2ccc3c(c2)N(C)CCC3)CC1)c1ccc(F)cc1 [Example 148, (1r,4R)-N-((R)-1-(4-fluorophenyl)ethyl)-4-(1-methyl-1,2,3,4-tetrahydroquinoline-7-sulfonamido)cyclohexanecarboxamide]
